Earlier results as cited in paper PMC9863691, “A Novel Ferroptosis Inhibitor UAMC-3203, a Potential Treatment for Corneal Epithelial Wound” (Pharmaceutics, 2022).

How the values were obtained:
[1] = test system: ferroptosis; design: method as in PMID 30354101; conditions: read-out: in vitro potency IC50 (ferroptosis); cited from earlier work
[2] = test system: human corneal epithelial cell line; design: method as in PMID 34535730; conditions: after exposure to cigarette smoke and heated tobacco products; cited from earlier work
[3] = human, microsomes; cited from earlier work

Compound: CCOC(=O)c1ccc(NC2CCCCC2)c(N)c1 [Fer-1, Ferrostatin-1, reference compound]
- IC50 [1]: 33 nM
- effect on cell death and cell viability [2]: reduced cell death and improved cell viability
- t1/2 in human microsome [3]: 6 min
